Patent US10167262B2, “Herbicidal substituted 3-arylpyrazoles” (FMC CORPORATION, priority 2014, dated 2019)

Columns and labels:
Assay in all cases: Test E pre-/postemergence greenhouse test, plant response rating 0-100
Format in all cases: in vivo
[1] = system: Brazilian crabgrass (Digitaria horizontalis); conditions: Postemergence, scale 0 to 100
Summary of the method: (§1)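 Seeds sown in silt loam soil received preemergence treatment with compound in a non-phytotoxic solvent mixture containing surfactant. Postemergence, plants at 2–18 cm (1- to 4-leaf stage) in peat/vermiculite medium were sprayed with the same formulation. Visual injury versus untreated controls was rated 0–100 after 14 to 21 days in the greenhouse.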

[2] = system: arrowleaf sida (Sida rhombifolia); conditions: Postemergence
Summary of the method: as §1

corn (Zea mays) = conditions: Postemergence, scale 0 to 100
Summary of the method: as §1

[3] = system: dayflower (Virginia (VA) dayflower, Commelina virginica); conditions: Postemergence, scale 0 to 100
Summary of the method: as §1

[4] = system: fall panicum (Panicum dichotomiflorum); conditions: Postemergence, scale 0 to 100
Summary of the method: as §1

[5] = system: field bindweed (Convolvulus arvensis); conditions: Postemergence, scale 0 to 100
Summary of the method: as §1

[6] = system: hairy beggarticks (Bidens pilosa); conditions: Postemergence, scale 0 to 100
Summary of the method: as §1

[7] = system: palmer pigweed (Amaranthus palmeri); conditions: Postemergence, scale 0 to 100
Summary of the method: as §1

[8] = system: sandbur (southern sandbur, Cenchrus echinatus); conditions: Postemergence, scale 0 to 100
Summary of the method: as §1

soybean (Glycine max) = conditions: Postemergence, scale 0 to 100
Summary of the method: as §1

[9] = system: waterhemp (common waterhemp, Amaranthus rudis); conditions: Postemergence, scale 0 to 100
Summary of the method: as §1

[10] = system: wild poinsettia (Euphorbia heterophylla); conditions: Postemergence, scale 0 to 100
Summary of the method: as §1

In the case of `Fc1cccc(NN=C(c2ccccc2)c2c[nH]nc2-c2cc(Cl)cc(Cl)c2)c1` [Compound 58], the “Plant response rating, Crabgrass, Brazil” value ([1]; 31 g ai/ha) is reported as 0, the “Plant response rating, Crabgrass, Brazil” value ([1]; 62 g ai/ha) is reported as 0 and the “Plant response rating, Crabgrass, Brazil” value ([1]; 125 g ai/ha) is reported as 0. For the same molecule, the “Plant response rating, Crabgrass, Brazil” value ([1]; 250 g ai/ha) was 0, the “Plant response rating, Crabgrass, Brazil” value ([1]; 500 g ai/ha) was 10 and the “Plant response rating, Arrowleaf Sida” value ([2]; 31 g ai/ha, scale 0 to 100) was 50. For the same molecule, the “Plant response rating, Arrowleaf Sida” value ([2]; 62 g ai/ha, scale 0 to 100) was 50, the “Plant response rating, Arrowleaf Sida” value ([2]; 125 g ai/ha, scale 0 to 100) was 60 and the “Plant response rating, Arrowleaf Sida” value ([2]; 250 g ai/ha, scale 0 to 100) was 75. The “Plant response rating, Arrowleaf Sida” value ([2]; 500 g ai/ha, scale 0 to 100 (0 no effect, 100 complete control)) was 80, the “Plant response rating, Corn” value (corn (Zea mays); 31 g ai/ha) was 0 and the “Plant response rating, Corn” value (corn (Zea mays); 62 g ai/ha) was 0. For the same molecule, the “Plant response rating, Corn” value (corn (Zea mays); 125 g ai/ha) was 0, the “Plant response rating, Corn” value (corn (Zea mays); 250 g ai/ha) was 0 and the “Plant response rating, Corn” value (corn (Zea mays); 500 g ai/ha) was 0. The “Plant response rating, Dayflower, VA” value ([3]; 31 g ai/ha) was 0, the “Plant response rating, Dayflower, VA” value ([3]; 62 g ai/ha) was 0 and the “Plant response rating, Dayflower, VA” value ([3]; 125 g ai/ha) was 0. The “Plant response rating, Dayflower, VA” value ([3]; 250 g ai/ha) was 0, the “Plant response rating, Dayflower, VA” value ([3]; 500 g ai/ha) was 0 and the “Plant response rating, Panicum, Fall” value ([4]; 31 g ai/ha) was 0. The “Plant response rating, Panicum, Fall” value ([4]; 250 g ai/ha) was 0, the “Plant response rating, Field Bindweed” value ([5]; 31 g ai/ha) was 0 and the “Plant response rating, Field Bindweed” value ([5]; 62 g ai/ha) was 0. The “Plant response rating, Field Bindweed” value ([5]; 125 g ai/ha) was 0, the “Plant response rating, Field Bindweed” value ([5]; 250 g ai/ha) was 0 and the “Plant response rating, Field Bindweed” value ([5]; 500 g ai/ha) was 10. The “Plant response rating, Beggarticks” value ([6]; 31 g ai/ha) was 70, the “Plant response rating, Beggarticks” value ([6]; 62 g ai/ha) was 80 and the “Plant response rating, Beggarticks” value ([6]; 125 g ai/ha) was 80. The “Plant response rating, Beggarticks” value ([6]; 250 g ai/ha) was 95, the “Plant response rating, Beggarticks” value ([6]; 500 g ai/ha) was 100 and the “Plant response rating, Pigweed, Palmer” value ([7]; 31 g ai/ha) was 80. For the same molecule, the “Plant response rating, Pigweed, Palmer” value ([7]; 62 g ai/ha) was 80, the “Plant response rating, Pigweed, Palmer” value ([7]; 125 g ai/ha) was 95 and the “Plant response rating, Pigweed, Palmer” value ([7]; 250 g ai/ha) was 95. For the same molecule, the “Plant response rating, Pigweed, Palmer” value ([7]; 500 g ai/ha) was 100, the “Plant response rating, Sandbur” value ([8]; 31 g ai/ha) was 0 and the “Plant response rating, Sandbur” value ([8]; 62 g ai/ha) was 0. The “Plant response rating, Sandbur” value ([8]; 125 g ai/ha) was 0, the “Plant response rating, Sandbur” value ([8]; 250 g ai/ha) was 0 and the “Plant response rating, Sandbur” value ([8]; 500 g ai/ha) was 0. The “Plant response rating, Soybean” value (soybean (Glycine max); 31 g ai/ha) was 0, the “Plant response rating, Soybean” value (soybean (Glycine max); 62 g ai/ha) was 0 and the “Plant response rating, Soybean” value (soybean (Glycine max); 125 g ai/ha) was 0. For the same molecule, the “Plant response rating, Soybean” value (soybean (Glycine max); 250 g ai/ha) was 0, the “Plant response rating, Soybean” value (soybean (Glycine max); 500 g ai/ha) was 0 and the “Plant response rating, Waterhemp” value ([9]; 31 g ai/ha) was 80. For the same molecule, the “Plant response rating, Waterhemp” value ([9]; 62 g ai/ha) was 90, the “Plant response rating, Waterhemp” value ([9]; 125 g ai/ha) was 95 and the “Plant response rating, Waterhemp” value ([9]; 250 g ai/ha) was 100. The “Plant response rating, Waterhemp” value ([9]; 500 g ai/ha) was 100, the “Plant response rating, Poinsettia, Wild” value ([10]; 31 g ai/ha) was 0 and the “Plant response rating, Poinsettia, Wild” value ([10]; 62 g ai/ha) was 0. The “Plant response rating, Poinsettia, Wild” value ([10]; 125 g ai/ha) was 0, the “Plant response rating, Poinsettia, Wild” value ([10]; 250 g ai/ha) was 0 and the “Plant response rating, Poinsettia, Wild” value ([10]; 500 g ai/ha) was 0.
